According to ChEMBL document CHEMBL1158662, “Cochinolide, a new gamma-alkylidene bicyclic butenolide with antiviral activity, and its beta-glucopyranoside from Homalium cochinchinensis” (J Nat Prod, 1998):
≈ marks a conversion by molar mass, not a printed value. Calls of active or inactive are those of the source. No cut-off for these calls is given here.

How the values were obtained:
Human alphaherpesvirus 1 = assay: Antiviral activity against HSV1; format: functional, organism-based
Human alphaherpesvirus 2 = assay: Antiviral activity against HSV2; format: functional, organism-based

Row | SMILES | Activity (Human alphaherpesvirus 1) | Activity (Human alphaherpesvirus 2) | EC50 (Human alphaherpesvirus 1) [µg/mL] | EC50 (Human alphaherpesvirus 2) [µg/mL]
1 | O=C1OC2=C[C@@H](O[C@@H]3O[C@H](CO)[C@@H](O)[C@H](O)[C@H]3O)CCC2=C1C(O)c1ccccc1 (some centres undefined) | inactive | inactive |  | 
2 | Nc1nc2c(ncn2COCCO)c(=O)[nH]1 [ACYCLOVIR] |  |  | 0.24 (≈ 1.07 µM) | 0.22 (≈ 0.977 µM)
